Source: patent US12521350B2, “Liquid crystalline dosage form for administering a statin” (CUBOPHARM PTY LTD, priority 2017, dated 2026)
Each block holds one compound with its values, some of them ahead of it.

How the values were obtained:
[1] = 10 mg, after 6 weeks therapy; cited from earlier work
[2] = In vitro release/permeation of rosuvastatin through porcine buccal mucosa in modified Ussing chambers; format: in vitro ADME, pigs
Method: Porcine buccal mucosa was freshly isolated from pigs cheeks, mounted between modified Ussing chambers with a donor chamber, receptor chamber and the porcine buccal mucosa in between with a diffusional area of 0.64 cm^2, and incubated in Krebs bicarbonate Ringer buffer (KBR, pH 7.4) for 30 min. The mixture or tablet containing rosuvastatin (supplied by Aspen Pharmacare Australia) were applied to the porcine buccal mucosa (ie in the donor chamber) and, when necessary, Parafilm was applied to cover the formulation (ie for tablets and for mixtures containing glyceryl monooleate (GMO) and rosuvastatin). The Parafilm prevented the various formulations from detaching from the buccal mucosa. KBR buffer (1.5 mL) was then added to both the donor and receptor chambers, and receptor samples (200 μL) were collected from the receptor chamber at various time points up to 4-5 hours to determine the amount of rosuvastatin that passed through the porcine buccal mucosa to the receptor chamber. 200 μL of fresh KBR was dispensed into the receptor chamber after each collection (to ensure volume balance). Receptor chamber samples were provided to Aspen Pharmacare Australia for quantification of rosuvastatin by HPLC.
Positive control was tested by making rosuvastatin solutions of 0.4 and 0.8 mg/1.5 ml KBR solution, equivalent to 1:[…] ODT's. […]

human subjects = test: Blood lipid changes after three single 5 mg rosuvastatin doses (Example 7); format: in vivo
Excerpt: Each participant was given a single dose of medication on separate occasions after appropriate wash-out periods. […]

[3] = Mean of 3 subjects, three single 5 mg doses
[4] = Person (buccal dosing), three single 5 mg doses
[5] = Person one (sublingual dosing), three single 5 mg doses
[6] = Person two (sublingual dosing), three single 5 mg doses
[7] = after three single 5 mg rosuvastatin doses

SMILES: CC(C)c1c(C(=O)Nc2ccccc2)c(-c2ccccc2)c(-c2ccc(F)cc2)n1CC[C@@H](O)C[C@@H](O)CC(=O)O [atorvastatin]
- Reductions in LDL-C [1]: 37%

- Total rosuvastatin absorbed per minute ([2]; positive control solution 0.4 mg/1.5 ml KBR, equivalent to 1:1 ODT): 0.6 ng/mL
- Total rosuvastatin absorbed per minute ([2]; positive control solution 0.8 mg/1.5 ml KBR, equivalent to 7:1 ODT): 0.3 ng/mL
SMILES: CC(C)c1nc(N(C)S(C)(=O)=O)nc(-c2ccc(F)cc2)c1/C=C/[C@@H](O)C[C@@H](O)CC(=O)O [rosuvastatin]
- % change in HDL (human subjects; [3]): 4.8%
- % change in LDL (human subjects; [3]): −26.54%
- % change in Triglycerides (human subjects; [3]): −7.91%
- % change in total cholesterol (human subjects; [3]): −16.8%
- % change in HDL (human subjects; [4]): 5.9%
- % change in LDL (human subjects; [4]): −35.7%
- % change in Triglycerides (human subjects; [4]): 20.0%
- % change in total cholesterol (human subjects; [4]): −20.3%
- % change in HDL (human subjects; [5]): −5.9%
- % change in LDL (human subjects; [5]): −21.05%
- % change in Triglycerides (human subjects; [5]): −37.5%
- % change in total cholesterol (human subjects; [5]): −17.5%
- % change in total cholesterol (human subjects; Person two (sublingual dosing), after 5 mg Crestor, 5 mg 1:1 tablet and 5 mg 7:1 tablet on consecutive days): −12.7%
- % change in HDL (human subjects; [6]): 14.3%
- % change in LDL (human subjects; [6]): −22.9%
- % change in Triglycerides (human subjects; [6]): −16.6%
- increase of HDL (human subjects; [7]): 5%
- reduction of low density lipoproteins (LDL-C) (human subjects; [7]): 27%
- reduction of total cholesterol (TC) (human subjects; [7]): 17%
